The values that follow come from patent US20050209278A1, “Piperidinyl- and piperazinyl-sulfonylmethyl hydroxamic acids and their use as protease inhibitors” (priority 2002, published 2005).

The structures appear in SMILES notation. Structures can show the parent of a compound that is named as a salt.

As a reminder, the IC50 is the concentration that gives 50% inhibition.

This assay has as its target T1, MMP-14 (Homo sapiens, UniProt P50281).
T1 construct: The catalytic domain enzyme was expressed in E. coli inclusion bodies, solubilized in urea; made in house
Kind of assay: In vitro MMP inhibition, IC50 determination (fluorogenic substrate I). The class given is biochemical. Particulars: values in parenthesis; 4 μM substrate I; room temperature. As for the experimental part: Several hydroxamic acids and salts thereof were analyzed in in vitro assays to determine their ability to inhibit the MMP cleavage of peptide substrates. […] and IC50 constants were calculated from the assayed hydroxamic acid-MMP interactions. Human recombinant MMP-1, MMP-2, MMP-9, MMP-13, and MMP-14 were used in this assay. All enzymes were prepared in Assignee's laboratories following usual laboratory procedures. Protocols for the preparation and use of these enzymes are available in the scientific literature. See, e.g., Enzyme Nomenclature (Academic Press, San Diego, Calif., 1992) (and the citations therein). See also, Freije et al., “Molecular cloning and expression of collagenase-3, a novel human matrix metalloproteinase produced by breast carcinomas,” J Biol. Chem., 269(24), 16766-16773 (1994). The MMP-14 full length cDNA was provided by Dr. Gregory Goldberg of Washington University (St. Louis, Mo.). The catalytic domain enzyme was expressed in E. coli inclusion bodies, solubilized in urea, purified on a preparative […] reverse phase HPLC column, and then refolded in the presence of zinc acetate and purified for use. All MMPs were activated using 4-aminophenylmercuric acetate (“APMA”, Sigma Chemical, St. Louis, Mo.) or trypsin. MMP-9 also was activated using human recombinant MMP-3 (purified in Assignee's laboratory following standard cloning and purification techniques). […] Substrate (I) was purchased from Baychem (Redwood City, Calif.), and substrate II was prepared Assignee's laboratory. Substrate I was used in the IC50 determination assays, while substrate II was used in the Ki determination assays. In the absence of MMP inhibitory activity, either substrate is cleaved at the Gly-Leu peptide bond. […] The stock solutions of the assayed hydroxamic acids (or salts thereof) were prepared in 1% dimethyl sulfoxide (DMSO). […] The experiment controls contained the same amount of Buffer A/DMSO as the assayed sample, but contained no hydroxamic acid (or salt thereof). The assays from which the IC50 determinations were made were performed as follows. […] Louis, Mo.). The assayed hydroxamic acid samples were incubated in MicrofluorTM White Plates (Dynatech, Chantilly, Va.) and analyzed on a Perkin Elmer […] plate reader (Norwalk, Conn.). The excitation wavelength was 328 nm, and the emission wavelength-415 nm. […] As stated in the previous paragraph, samples containing varying concentrations of the same assayed hydroxamic acid were prepared. Inhibition was measured as a reduction in fluorescent intensity as a function of MMP inhibitor concentration. […] All values in Table 2 are given in nM units. The IC50 measurements are in parenthesis.
Turning to `CCCCCc1ccc(N2CCN(S(=O)(=O)C3(C(=O)NO)CCN(CCOC)CC3)CC2)cc1` [Example 6, N-Hydroxy-1-(2-methoxyethyl)-4-{[4-(4-pentylphenyl)piperazin-1-yl]sulfonyl}piperidine-4-carboxamide Dihydrochloride], the half-maximal inhibitory concentration (IC50) is > 10 µM.
Consider `CCCCc1ccc(N2CCN(S(=O)(=O)C3(C(=O)NO)CCN(CCOC)CC3)CC2)cc1` [Example 5, 4-{[4-(4-butylphenyl)piperazin-1-yl]sulfonyl}-N-hydroxy-1-(2-methoxyethyl)piperidine-4-carboxamide Dihydrochloride], for which the concentration for half-maximal inhibition (IC50) turned out to be 4.55 µM.
To `O=C(NO)C1(S(=O)(=O)N2CCN(c3ccc(OCC4CC4)c(F)c3)CC2)CCN(C2CC2)CC1` [Example 10, 1-cyclopropyl-4-[[4-[4-(cyclopropylmethoxy)-3-fluorophenyl]-1-piperazinyl]sulfonyl]-N-hydroxy-4-piperidinecarboxamide, dihydrochloride] belongs 5.82 µM; to `CCCCOc1ccc(N2CCN(S(=O)(=O)C3(C(=O)NO)CCN(CCOC)CC3)CC2)cc1F` [Example 11, 4-[[4-(4-butoxy-3-fluorophenyl)-1-piperazinyl]sulfonyl]-N-hydroxy-1-(2-methoxyethyl)-4-piperidinecarboxamide, Dihydrochloride], 7.12 µM.
As to `CCCCCc1ccc(C2CCN(S(=O)(=O)C3(C(=O)NO)CCN(CCOC)CC3)CC2)cc1` [Example 15, N-hydroxy-1-(2-methoxyethyl)-4-{[4-(4-pentylpheyl)piperidin-1-yl]sulfonyl}piperidine-4-carboxamide Hydrochloride], the IC50 is 6.17 µM.
